Data from the supplement of paper PMC10307832.

Key:
Assay in all cases: relative viability (nuclei count vs DMSO), 5 days (fraction); higher = more cells survive
[1] = compound: O=C(NCCCNc1nc(Nc2cccc(NC(=O)N3CCCC3)c2)ncc1I)c1cccs1 [BX 795] + CC1(C)CCC(c2ccc(Cl)cc2)=C(CN2CCN(c3ccc(C(=O)NS(=O)(=O)c4ccc(N[C@H](CCN5CCOCC5)CSc5ccccc5)c(S(=O)(=O)C(F)(F)F)c4)cc3)CC2)C1 [Navitoclax] (partner 0.5 µM)
Method in brief: (§1)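 For relative viability, nuclei counts in treated wells were divided by those in vehicle wells. Lung cancer cell lines had been pin-tool dosed in 1536-well plates the day after seeding and cultured for 5 days, then fixed and stained in one step (final 0.05% Triton X-100, 1% formaldehyde, 1 ug/ml Hoechst) and imaged at 4×. Doses were one drug alone or a fixed anchor-drug dose plus five library-drug doses (not always all listed) in √10 steps, and values are duplicate-plate medians.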

[2] = compound: O=C(NCCCNc1nc(Nc2cccc(NC(=O)N3CCCC3)c2)ncc1I)c1cccs1 [BX 795] + Nc1ncn([C@H]2C[C@H](O)[C@@H](CO)O2)c(=O)n1 [Decitabine] (partner 2 µM)
Method in brief: as §1

[3] = compound: O=C(NCCCNc1nc(Nc2cccc(NC(=O)N3CCCC3)c2)ncc1I)c1cccs1 [BX 795] + O=C(CCCCCCC(=O)Nc1ccccc1)NO [Vorinostat] (partner 1 µM)
Method in brief: as §1

[4] = compound: O=C(NCCCNc1nc(Nc2cccc(NC(=O)N3CCCC3)c2)ncc1I)c1cccs1 [BX 795] + CS(=O)(=O)CCNCc1ccc(-c2ccc3ncnc(Nc4ccc(OCc5cccc(F)c5)c(Cl)c4)c3c2)o1 [Lapatinib] (partner 2 µM)
Method in brief: as §1

[5] = compound: O=C(NCCCNc1nc(Nc2cccc(NC(=O)N3CCCC3)c2)ncc1I)c1cccs1 [BX 795] + C[C@]1(O)C[C@@H](c2nc(-c3ccc4ccc(-c5ccccc5)nc4c3)c3c(N)nccn32)C1 [Linsitinib] (partner 1 µM)
Method in brief: as §1

| Cell Line | relative viability ([1]; first compound 0.04 µM) | relative viability ([1]; first compound 0.1265 µM) | relative viability ([1]; first compound 0.4 µM) | relative viability ([1]; first compound 1.265 µM) | relative viability ([2]; first compound 0.04 µM) | relative viability ([2]; first compound 0.1265 µM) | relative viability ([2]; first compound 0.4 µM) | relative viability ([2]; first compound 1.265 µM) | relative viability ([3]; first compound 0.04 µM) | relative viability ([3]; first compound 0.1265 µM) | relative viability ([3]; first compound 0.4 µM) | relative viability ([3]; first compound 1.265 µM) | relative viability ([4]; first compound 0.04 µM) | relative viability ([4]; first compound 0.1265 µM) | relative viability ([4]; first compound 0.4 µM) | relative viability ([4]; first compound 1.265 µM) | relative viability ([5]; first compound 0.04 µM) | relative viability ([5]; first compound 0.1265 µM) | relative viability ([5]; first compound 0.4 µM) | relative viability ([5]; first compound 1.265 µM) |
| --- | --- | --- | --- | --- | --- | --- | --- | --- | --- | --- | --- | --- | --- | --- | --- | --- | --- | --- | --- | --- |
| HCC-78 | 0.857 | 0.926 | 0.792 | 0.718 | 0.913 | 0.664 | 0.825 | 0.653 | 0.474 | 0.419 | 0.399 | 0.352 | 0.93 | 0.585 | 0.604 | 0.732 | 0.624 | 0.657 | 0.534 | 0.554 |
| HCC-44 | 0.872 | 1.05 | 1.02 | 0.708 | 0.952 | 0.983 | 1.07 | 1 | 1.08 | 1.12 | 1.18 | 1.07 | 0.934 | 1.01 | 0.981 | 1.04 | 0.648 | 0.668 | 0.787 | 0.426 |
| A549 | 1.19 | 1.24 | 1.47 | 0.739 | 0.332 | 0.289 | 0.329 | 0.282 | – | – | – | – | 0.999 | 0.88 | 1 | 0.146 | 0.579 | 0.646 | 0.574 | 0.552 |
| HCC-15 | 0.751 | 0.7 | 0.756 | 0.53 | 0.585 | 0.646 | 0.684 | 0.448 | 0.773 | 0.865 | 0.818 | 0.718 | 0.721 | 0.871 | 0.795 | 0.661 | 0.915 | 0.964 | 0.937 | 0.675 |
| H3255 | 0.663 | 0.484 | 0.694 | 0.527 | 0.647 | 0.819 | 0.664 | 0.616 | 0.79 | 0.797 | 0.938 | 0.754 | 0.289 | 0.234 | 0.256 | 0.255 | 1.04 | 1.07 | 1.05 | 0.842 |
| CAL-12T | 1.08 | 1.23 | 1.25 | 0.497 | – | – | – | – | 0.661 | 0.715 | 0.523 | 0.413 | 0.738 | 0.624 | 0.608 | 0.29 | 0.833 | 0.901 | 0.723 | 0.374 |
| NCI-H441 | 0.867 | 0.429 | 1.03 | 0.564 | 0.281 | 0.262 | 0.316 | 0.245 | 0.893 | 0.843 | 0.848 | 0.613 | – | – | – | – | 0.667 | 0.528 | 0.854 | 0.326 |
| HCC-366 | 0.865 | 0.977 | 0.74 | 0.823 | 0.332 | 0.371 | 0.31 | 0.255 | 0.311 | 0.295 | 0.224 | 0.0717 | 0.834 | 1.11 | 0.858 | 1.12 | 0.469 | 0.727 | 0.257 | 0.3 |
| NCI-H1437 | 1.08 | 1.06 | 1.15 | 0.94 | 0.616 | 0.586 | 0.846 | 0.618 | 0.765 | 0.945 | 1.02 | 0.621 | 0.833 | 0.858 | 0.782 | 0.547 | 1.05 | 1.07 | 0.992 | 0.769 |
| NCI-H1563 | – | – | – | – | – | – | – | – | – | – | – | – | 1.01 | 1.01 | 1.05 | 0.785 | 1.36 | 1.23 | 1.3 | 0.905 |
| SK-MES-1 | 1.26 | 1.32 | 1.23 | 0.886 | 0.503 | 0.358 | 0.392 | 0.39 | 1.1 | 1.11 | 0.545 | 0.748 | 0.509 | 0.45 | 0.458 | 0.385 | 1.11 | 0.985 | 0.992 | 0.745 |
| NCI-H661 | – | – | – | – | 0.683 | 0.594 | 0.589 | 0.533 | 0.824 | 0.862 | 0.832 | 0.449 | 0.564 | 0.576 | 0.359 | 0.402 | 0.615 | 0.641 | 0.34 | 0.433 |
| COR-L 105 | 0.795 | 0.583 | 0.652 | 0.39 | 0.636 | 0.589 | 0.507 | 0.603 | 0.835 | 0.702 | 0.622 | 0.429 | 0.354 | 0.334 | 0.308 | 0.293 | 1.08 | 0.768 | 0.849 | 0.447 |
| NCI-H2342 | – | – | – | – | 0.87 | 0.686 | 0.823 | 0.641 | 0.754 | 0.734 | 0.651 | 0.726 | – | – | – | – | – | – | – | – |
| NCI-H520 | 0.736 | 1.12 | 0.95 | 0.535 | 0.55 | 0.545 | 0.622 | 0.425 | 0.69 | 0.721 | 0.768 | 0.381 | 0.38 | 0.778 | 0.672 | 0.301 | 0.746 | 1.06 | 0.859 | 0.359 |
| NCI-H1975 | 1.19 | 1.24 | 1.16 | 0.985 | 0.434 | 0.472 | 0.35 | 0.359 | 0.761 | 0.713 | 0.656 | 0.399 | 0.903 | 0.982 | 0.727 | 0.512 | 0.83 | 1.04 | 0.977 | 0.659 |
| NCI-H2009 | 1.23 | 1.1 | 1.19 | 0.853 | 0.391 | 0.39 | 0.4 | 0.374 | 0.731 | 0.67 | 0.818 | 0.591 | 0.912 | 0.86 | 0.988 | 0.671 | 1.27 | 1.19 | 1.19 | 0.871 |
